{"source": "patent US6939830B1", "about": "“Method for fighting soil insects with phenyl-pyrazoles” (Basf Agro B.V. Arnhem (NL) - Wadenswil Branch, priority 1999, dated 2005)", "key": {"[1]": {"tested_on": "larvae of click beetles of the genus Agriotes, in particular Agriotes sordidus", "test": "Maize field trial, St Hilaire: emerged plants counted after bait granules incorporated in the sowing row", "format": "in vivo", "conditions": "22 days after sowing, 2 mm maize-meal granules with 0.25% fipronil, untreated 19", "text": "(§1) A surface of 0.1 ha is sown with maize at the rate of about 8000 untreated seeds. This surface is divided into 40-m^2 plots. At the same time as the sowing, there are incorporated into the soil, in the sowing row, 2 mm granules containing a composition consisting of: The quantities of granules thus spread vary from 2.5 to 10 kg per hectare. Untreated plots are kept to serve as control and to verify the extent of the damage by the insects. Likewise, the plots will be treated with a commercial insecticide which is reputed effective and called reference. Each modality is repeated four times. Approximately 20 days after sowing, the maize plants which have emerged are counted. The soil is dug out and scraped in order to capture and identify the insects responsible for the damage; a large presence of larvae of click beetles of the genus Agriotes, in particular Agriotes sordidus, is observed for the untreated control."}, "[2]": {"tested_on": "larvae of click beetles of the genus Agriotes, in particular Agriotes lineatus", "test": "Maize field trial, Beaufort: emerged plants counted after bait granules incorporated in the sowing row", "format": "in vivo", "conditions": "50 days after sowing, 2 mm maize-meal granules with 0.25% fipronil, untreated 30", "text": "as §1, with “1” for “0.1”, “98, 100” for “8000”, “27-m^2” for “40-m^2”, “50” for “20”, “lineatus.” for “sordidus, is observed for the untreated control.”"}, "[3]": {"conditions": "dose of fipronil 6 g per hectare"}, "[4]": {"conditions": "dose of fipronil 50 g per hectare"}}}
{"smiles": "N#Cc1nn(-c2c(Cl)cc(C(F)(F)F)cc2Cl)c(N)c1[S+]([O-])C(F)(F)F", "note": "(stereo not shown) [fipronil, 5-amino-3-cyano-1-[2,6-di-chloro-4-(trifluoromethyl)phenyl]-4-[(trifluoromethyl)-sulphinyl]-1H-pyrazole]", "values": [{"measurement": "plants observed per 10 meters of furrow", "setting": "[1]; [3]", "value": "49 plants per 10 meters of furrow"}, {"measurement": "plants observed per 10 meters of furrow", "setting": "[1]; [4]", "value": "49 plants per 10 meters of furrow"}, {"measurement": "plants observed per 10 meters of furrow", "setting": "[2]; [3]", "value": "40 plants per 10 meters of furrow"}, {"measurement": "plants observed per 10 meters of furrow", "setting": "[2]; [4]", "value": "49.8 plants per 10 meters of furrow"}]}
